From patent US20180185440A1, “PHARMACEUTICAL COMPOSITIONS AND METHODS FOR DELIVERY OF BREMELANOTIDE” (NOVEN PHARMACEUTICALS, INC., priority 2016, published 2018)

Test: in vivo delivery of bremelanotide by oral capsules (rats)
Design: species or system rat
Settings: oral capsules with patches, FIG. 8
Description: The capsules of Examples 4-15 and Control 2, described above, were tested in vivo in a rat model. Capsules were administered by oral gavage administration using a dosing tool, followed by administration of 0.3 mL of water. Blood samples were drawn until 5 hours after administration and assayed for bremelanotide concentration as a function of time. FIGS. 5-8 illustrate the blood levels (pg/ml) of bremelanotide achieved (reported as the average from n=2 or 3 rats per formulation tested). […] The results illustrated in FIGS. 6 and 7 indicate that increasing the relative amount of penetration enhancer results in increased bremelanotide delivery.

CCCCCCCCCCCCO[C@@H]1O[C@H](CO)[C@@H](O[C@H]2O[C@H](CO)[C@@H](O)[C@H](O)[C@H]2O)[C@H](O)[C@H]1O [n-DMS, n-dodecyl-β-D-maltoside]
enhancer effect for bremelanotide through the GI tract: effective enhancers
